Columns and labels:
AMPK α2/α1 CAT β1γ1 = target: T1, AMPK α2/α1 CAT β1γ1 (Homo sapiens, UniProt P54619+P54646, A116S/A126G/A242I/C200S/E112D/E217D/E235Q/E34K/F89I/G228D/H108N/I233T/I32V/K62R/L254M/M114K/M246K/Q36E/R227C/R239P/T243S/T87S/V111L/V17I/V230I); test: Chimeric AMPK complex activation assay; format: biochemical; conditions: complex expressed in E. coli; read-out: EC50, allosteric activation
T1 construct: 6×His (N); made in house; host or cells: E. coli (tricistronic pET15-b construct)
Excerpt: (§1) Figure 3 Regulatory Elements within the α-Linker Determine the Isoform Specificity of C2 (A) Diagram illustrating the domain organization of the AMPKα subunit with a global pairwise alignment of a section of the α-linker of human AMPKα1 (Q13131) and AMPKα2 (P54646). Regulatory elements in the α-linker are highlighted, including the α-hook as originally defined by [Xiao et al. (2011)] (pink) and the reassigned sequence (also known as α-RIM2) shaded in orange. The secondary structure for α1 is derived from PDB ID 2Y94. The table summarizes the sequences of the α1/α2 chimeras produced to examine the role of various structural elements in the activation of α2β1γ1 complexes by C2. (B–E) Human AMPKα1/α2 chimeras (defined in A) were generated as complexes with β1γ1 in E. coli. Purified active complexes were assayed for the activation of phosphotransferase activity by AMP and C2, as described in Figure 1. Results (line graphs) are expressed as the fold increase in activity relative to reactions performed in the absence of compound and represent the mean ± SD of three independent experiments. Complexes were also assayed for protection against dephosphorylation and inactivation by PP2Cα, as described in Figures 2C and 2D. Results (bar charts) are expressed as the mean (percentage of control) ± SD of three independent experiments. Representative blots of pT172 and total AMPKα are shown below the bar charts. TEXT PRINTED IN THE PICTURE: (B) C2: AMPK211 - α2/α1 CAT: EC50: ND | (B) AMP: AMPK211 - α2/α1 CAT: EC50: 1.3 ± 0.2 μM | (C) C2: AMPK211 - α2/α1 REG: EC50: 0.009 ± 0.0006 μM | (C) AMP: AMPK211 - α2/α1 REG: EC50: 3.1 ± 0.3 μM | (D) C2: AMPK211 - α2/α1 HOOK: EC50: ND | (D) AMP: AMPK211 - α2/α1 HOOK: EC50: 1.4 ± 0.2 μM | (E) C2: AMPK211 + α2/α1 LOOP: EC50: 0.013 ± 0.001 μM | (E) AMP: AMPK211 + α2/α1 LOOP: EC50: 2.7 ± 0.3 μM […]
(§2) AMPK phosphotransferase activity was assayed in reactions (50 μl) containing 50 mM HEPES, pH 7.4, 10 mM MgCl2, 0.1 mM EGTA, 1 mM DTT, 0.01% BRIJ-35, 100 μM [γ-^32P]ATP (∼250 CPM⋅pmol^−1) and 200 μM AMARA (AMARAASAAALARRR). Reactions were started by the addition of AMPK (5 mU), incubated for 20 min at 30°C and quenched by spotting onto P81 and immersion in 75 mM H3PO4. Washed filters were dried and [^32P] incorporation determined by Cherenkov counting. AMPK activity in cell extracts was determined by immunoprecipitation with AMPKα1 or AMPKα2 antibodies from 50 μg material, as previously described ([Hunter et al., 2011]). […]

AMPK α2/α1 HOOK β1γ1 = target: T2, AMPK α2/α1 HOOK β1γ1 (Homo sapiens, UniProt P54619+P54646, A386E/C382H/K379R/P383T); test: Chimeric AMPK complex activation assay; format: biochemical; conditions: complex expressed in E. coli; read-out: EC50, allosteric activation
T2 construct: 6×His (N); made in house; host or cells: E. coli (tricistronic pET15-b construct)
T2 sequence (P54646 whole entry K379R/C382H/P383T/A386E): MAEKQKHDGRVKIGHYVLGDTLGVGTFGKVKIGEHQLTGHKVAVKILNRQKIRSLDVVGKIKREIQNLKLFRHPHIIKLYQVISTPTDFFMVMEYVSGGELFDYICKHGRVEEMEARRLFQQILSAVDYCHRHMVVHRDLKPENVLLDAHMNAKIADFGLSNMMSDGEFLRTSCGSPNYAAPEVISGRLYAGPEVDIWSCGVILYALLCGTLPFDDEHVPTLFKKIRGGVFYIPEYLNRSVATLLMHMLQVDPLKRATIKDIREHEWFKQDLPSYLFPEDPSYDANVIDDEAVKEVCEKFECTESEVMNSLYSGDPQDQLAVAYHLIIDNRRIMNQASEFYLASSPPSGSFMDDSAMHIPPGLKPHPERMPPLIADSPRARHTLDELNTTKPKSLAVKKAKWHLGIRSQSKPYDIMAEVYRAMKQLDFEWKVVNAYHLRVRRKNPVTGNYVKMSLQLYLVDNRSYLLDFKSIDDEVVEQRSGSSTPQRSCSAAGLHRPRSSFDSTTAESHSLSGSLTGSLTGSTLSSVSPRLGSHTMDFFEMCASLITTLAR
T2 sequence (Q9Y478 whole entry partner): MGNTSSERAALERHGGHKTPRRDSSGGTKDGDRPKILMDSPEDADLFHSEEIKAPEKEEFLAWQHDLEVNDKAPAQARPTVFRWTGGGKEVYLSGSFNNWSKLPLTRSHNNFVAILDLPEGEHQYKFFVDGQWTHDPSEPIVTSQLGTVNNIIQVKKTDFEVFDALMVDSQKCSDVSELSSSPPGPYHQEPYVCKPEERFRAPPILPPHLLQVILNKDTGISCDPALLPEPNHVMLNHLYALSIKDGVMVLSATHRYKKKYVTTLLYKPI
T2 sequence (P54619 whole entry): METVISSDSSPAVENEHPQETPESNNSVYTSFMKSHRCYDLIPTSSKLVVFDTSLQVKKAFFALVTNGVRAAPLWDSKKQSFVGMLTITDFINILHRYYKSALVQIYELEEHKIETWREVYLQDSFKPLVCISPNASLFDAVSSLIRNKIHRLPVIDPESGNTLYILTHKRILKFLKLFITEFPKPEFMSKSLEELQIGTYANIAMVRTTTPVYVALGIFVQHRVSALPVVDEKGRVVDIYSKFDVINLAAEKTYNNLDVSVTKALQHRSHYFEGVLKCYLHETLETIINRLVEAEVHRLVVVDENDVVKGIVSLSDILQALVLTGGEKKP
Excerpt: as §1, §2

T1 sequence (P54619 whole entry, stated change not applied): as the sequence (P54619 whole entry) above
T1 sequence (Q9Y478 whole entry, further chain): as the sequence (Q9Y478 whole entry partner) above
T1 sequence (P54646 other isoform, or with tags, fused parts or gaps with the stated changes): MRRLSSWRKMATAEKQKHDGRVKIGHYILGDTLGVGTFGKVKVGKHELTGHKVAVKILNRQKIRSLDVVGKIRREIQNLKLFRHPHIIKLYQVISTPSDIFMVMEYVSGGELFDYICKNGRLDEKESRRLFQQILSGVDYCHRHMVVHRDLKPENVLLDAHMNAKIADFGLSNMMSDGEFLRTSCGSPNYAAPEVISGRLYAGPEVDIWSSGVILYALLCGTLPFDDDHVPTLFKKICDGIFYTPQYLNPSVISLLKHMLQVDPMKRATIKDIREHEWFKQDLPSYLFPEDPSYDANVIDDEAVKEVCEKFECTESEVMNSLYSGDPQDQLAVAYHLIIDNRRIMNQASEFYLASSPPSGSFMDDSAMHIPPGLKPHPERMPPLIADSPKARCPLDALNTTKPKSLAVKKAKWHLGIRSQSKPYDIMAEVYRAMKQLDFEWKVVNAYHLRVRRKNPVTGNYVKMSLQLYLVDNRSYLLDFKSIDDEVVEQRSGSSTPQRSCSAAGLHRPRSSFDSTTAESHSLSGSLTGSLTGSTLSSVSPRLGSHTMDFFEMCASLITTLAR

Nc1ncnc2c1ncn2[C@@H]1O[C@H](COP(=O)(O)O)[C@@H](O)[C@H]1O [AMP, reference compound]
EC50 (AMPK α2/α1 CAT β1γ1): 1300 ± 200 nM | EC50 (AMPK α2/α1 HOOK β1γ1): 1400 ± 200 nM

— PMC4104029, “Mechanism of Action of Compound-13: An α1-Selective Small Molecule Activator of AMPK” (Chemistry & Biology, 2014)
